Data on eight molecules can be found in patent US20150166520A1, “AMIDO-SUBSTITUTED PYRIMIDINONE DERIVATIVES USEFUL FOR THE TREATMENT OF HIV INFECTION” (MERCK SHARP & DOHME CORP., priority 2012, published 2015).

Structures are written as SMILES.

As a reminder, the Cmax is the highest concentration seen after dosing. The term Tmax denotes the time from dosing to the highest level. The term half-life denotes how long it takes for the measured level to halve. As usually defined, the bioavailability is dose-corrected exposure relative to a reference, in per cent.

Data set [1] is described as follows: Dog pharmacokinetic study, colonic dose. Type of data set: in vivo, Male Beagle Dogs. The conditions noted are these: for colonic absorption versus metabolite Compound 1a: Beagle dogs, colonic dosing, statement in words; for Cmax / AUC(0-t) / Tmax: male, dog, plasma, fasted Beagle dogs, Colonic, compound measured = prodrug dosed; for Cmax / AUC(0-t): mean ± SE; for AUC(0-t): read-out: AUC0-24 hr; for Tmax: median. On the set-up: AUC(0-t) / Tmax: dose or concentration left out as unconfirmed. The protocol:
(§1) Six Male Beagle Dogs (Marshall Farms) weighing 9.0-11.6 kg were used for the studies. Studies were conducted under a protocol approved by the WP-IACUC (Animal Procedure Statement #09068544080285). […] Dosing was followed by 5 mL water rinse via oral gavage for oral dosing or with a post-dose water flush of the catheter for colonic dosing. Water was restricted for 1 hour post dose. Food was returned at 4 hours after dosing. Blood (1-mL) was drawn at pre-dose, 0.25, 0.5, 1, 2, 4, 6, 8 and 24 hours post-dosing. The plasma was separated by centrifugation (10 minutes at 2500 g) and kept frozen at −70° C. until analysis by LC-MS/MS.

Data set [2] in a line: Dog pharmacokinetic study, oral dose. Type of data set: in vivo. On the set-up: AUC(0-t) / Tmax: dose or concentration left out as unconfirmed. The conditions noted are these: male, plasma, fasted Beagle dogs, compound measured = prodrug dosed; for Cmax / AUC(0-t): mean ± SE; for AUC(0-t): read-out: AUC0-24 hr; for Tmax: median. The protocol:
as §1

Data set [3] relates to cryopreserved hepatocytes from dog. As to the kind of experiment: Metabolism of compounds in hepatocyte suspensions (prodrug hydrolysis), dog. The conditions noted are these: prodrug 1 μM, dog hepatocytes 1×10^6 cells/mL, 37° C. In kind it is in vitro ADME. The protocol: (§2) Selected compounds of the present invention (1 μM) were incubated with suspensions of cryopreserved hepatocytes from rat, dog and human subjects at a cell density of 1×10^6 cells/mL. The samples were incubated for 0, 5, 15, 30, 60 and 90 minutes in a 95% humidified incubator at 37° C. with 5% CO2. At each time point, the samples were quenched with acetonitrile containing an appropriate internal standard. The samples were then vortex-mixed and centrifuged at ˜2,900×g for 30 minutes. The supernatants were transferred to clean plates and analyzed using LC-MS/MS. Following quantification of prodrug and parent in the samples, half lives of conversion (t1/2) were determined from the rates of prodrug degradation according to first-order kinetics. Conversion to active metabolite (compound 1a) was confirmed by following the formation of compound 1a.

The test system of data set [4] is cryopreserved hepatocytes from rat. The experiment in a line: Metabolism of compounds in hepatocyte suspensions (prodrug hydrolysis), rat. In kind it is in vitro ADME. Particulars: prodrug 1 μM, rat hepatocytes 1×10^6 cells/mL, 37° C. How it is done:
as §2

Data set [5] has as its system cryopreserved hepatocytes from human. The experiment in a line: Metabolism of compounds in hepatocyte suspensions (prodrug hydrolysis), human. Type of data set: in vitro ADME. The conditions noted are these: prodrug 1 μM, human hepatocytes 1×10^6 cells/mL, 37° C. The protocol: as §2
Data set [6] is described as follows: Intravenous pharmacokinetics in Wistar-Hanover rats. Type of data set: in vivo, male Wistar-Hanover rats. Particulars: rat, plasma; for half-life / AUC / Vd / clearance: male, Wistar-Hanover; for half-life / Vd / clearance: prodrug; for AUC / nAUC0-∞: prodrug measured; for AUC: read-out: AUC0-x; for Vd: read-out: Vdss; for clearance: read-out: Clp. The protocol: (§3) Selected compounds of the present invention were administered in suitable vehicles to male Wistar-Hanover rats. Intravenous (IV) administration to rats was conducted via cannulas implanted in the jugular vein. For oral administration, test compounds were administered by gavage. Blood samples were serially collected following dose administration for up to 24 hr and plasma was separated by centrifugation. The concentration of test compound in rat plasma were determined by a LC-MS/MS assay following a protein precipitation step and addition of an appropriate internal standard. Quantification was done by determining peak area-ratios of the test compound and compound 1a (the metabolite of each of the test compounds) to the internal standard. Pharmacokinetic parameters were obtained using non-compartmental methods (Watson®). The area under the plasma concentration-time curve (AUC0-t) was calculated from the first time point (0 min) up to the last time point with measurable test compound concentration using the linear trapezoidal or linear/log-linear trapezoidal rule. The IV plasma clearance was calculated by dividing the dose by AUC0-inf. The terminal half-life of elimination was determined by unweighted linear regression analysis of the log-transformed data. The time points for determination of half-life were selected by visual inspection of the data. The volume of distribution at steady state (Vdss) was obtained from the product of plasma clearance and mean residence time (determined by dividing the area under the first moment curve by the area under the curve). The maximum plasma concentration (Cmax) and the time at which maximum concentration occurred (Tmax) were obtained by inspection of the plasma concentration-time data. Absolute oral bioavailability was determined from dose-adjusted IV and P.O. AUC ratios.

The nature of data set [7]: Oral pharmacokinetics in Wistar-Hanover rats. Type of data set: in vivo, male Wistar-Hanover rats. Particulars: plasma, rat; for bioavailability: oral, prodrug, from dose-adjusted IV and P.O. AUC ratios; for Tmax / AUC / Cmax / nAUC: oral gavage, prodrug measured; for AUC: read-out: AUC0-x hr. The protocol:
as §3

The mark [8] stands for this setting: male, Wistar-Hanover, read-out: Cmax.

As to `CCOC(=O)OC(C)Oc1c(C(=O)NCc2ccc(F)cc2)nc(C(C)(C)NC(=O)c2nnc(C)o2)n(C)c1=O` (stereo not shown) [Compound 1], in data set [1], the “colonic absorption versus metabolite Compound 1a” value is “significant increase in colonic absorption”, the Cmax was found to be 91 ± 25 nM, the AUC(0-t) was determined as 0.083 ± 0.034 µM·h and the Tmax worked out at 18 min. In data set [2], the Cmax turned out to be 212 ± 32 nM, the AUC(0-t) was found to be 0.146 ± 0.033 µM·h and the Tmax is 18 min. Moreover, the “Remaining at 90 min, Dog” value in data set [3] stood at 15.94%. Also, the “Remaining at 90 min, Rat” value in data set [4] amounted to 30.30%. The “Remaining at 90 min, Human” value in data set [5] is 19.32%. In data set [6], the half-life is 9 min, the AUC turned out to be 0.012 µM·h and the “nAUC0-∞” value came to 0.012 µM·h. In addition, in data set [7] (male, Wistar-Hanover), the bioavailability turned out to be 3%, the Tmax was 15 min and the AUC worked out at 0.002 µM·h. Also, the Cmax in data set [7] (setting [8]) was determined as 6 nM. Besides, the nAUC in data set [7] turned out to be 0.0004 µM·h.

Take `Cc1nnc(C(=O)NC(C)(C)c2nc(C(=O)NCc3ccc(F)cc3)c(OCOC(=O)C(C)(C)C)c(=O)n2C)o1` [Compound 22]: in data set [1], the “colonic absorption versus metabolite Compound 1a” value is “significant increase in colonic absorption”, the Cmax was 10 ± 3 nM, the AUC(0-t) was 0.014 ± 0.003 µM·h and the Tmax worked out at 15 min. Further, in data set [2], the Cmax came out at 8 ± 2 nM, the AUC(0-t) was determined as 0.006 ± 0.002 µM·h and the Tmax was 30 min. In addition, the “Remaining at 90 min, Dog” value in data set [3] stood at 3.21%. Also, in data set [4], the “Remaining at 90 min, Rat” value is 3.58%. Moreover, the “Remaining at 90 min, Human” value in data set [5] was 4.27%. Also, in data set [6], the half-life was 2.4 min, the AUC was 0.012 µM·h and the “nAUC0-∞” value worked out at 0.012 µM·h. Moreover, the Cmax entry in data set [7] is reported as “BLQ”.

`Cc1nnc(C(=O)NC(C)(C)c2nc(C(=O)NCc3ccc(F)cc3)c(OC(OC(=O)OC(C)C)C(C)C)c(=O)n2C)o1` (stereo not shown) [Compound 12]: in data set [3], the “Remaining at 90 min, Dog” value came to 5.97%. In addition, the “Remaining at 90 min, Rat” value in data set [4] is listed as 38.75%. In addition, the “Remaining at 90 min, Human” value in data set [5] was determined as 14.81%.

For `CC(=O)OC(Oc1c(C(=O)NCc2ccc(F)cc2)nc(C(C)(C)NC(=O)c2nnc(C)o2)n(C)c1=O)C(C)C` (stereo not shown) [Compound 23], the “Remaining at 90 min, Dog” value in data set [3] turned out to be 8.14%. Moreover, the “Remaining at 90 min, Rat” value in data set [4] was 50.65%. Moreover, the “Remaining at 90 min, Human” value in data set [5] stood at 28.06%.

On to `CCOC(=O)OC(CC)Oc1c(C(=O)NCc2ccc(F)cc2)nc(C(C)(C)NC(=O)c2nnc(C)o2)n(C)c1=O` (stereo not shown) [Compound 15], for which, in data set [3], the “Remaining at 90 min, Dog” value was found to be 8.90%. The “Remaining at 90 min, Rat” value in data set [4] was determined as 6.20%. Further, in data set [5], the “Remaining at 90 min, Human” value is given as 14.00%. Moreover, in data set [6], the Vd is 3.48 L/kg, the half-life was 8.4 min, the AUC stood at 0.085 µM·h and the clearance was determined as 388 mL/min/kg. In addition, the “nAUC0-∞” value in data set [6] came out at 0.085 µM·h. In addition, in data set [7] (male, Wistar-Hanover), the bioavailability turned out to be 7%, the Tmax turned out to be 45 min and the AUC was 0.028 µM·h. In data set [7] (setting [8]), the Cmax came to 21 nM. Besides, the nAUC in data set [7] was 0.006 µM·h.

For the molecule `Cc1nnc(C(=O)NC(C)(C)c2nc(C(=O)NCc3ccc(F)cc3)c(OCOC(=O)OC(C)C)c(=O)n2C)o1` [Compound 20], the “Remaining at 90 min, Dog” value in data set [3] is 1.70%. Also, the “Remaining at 90 min, Rat” value in data set [4] stood at 0.60%. Further, the “Remaining at 90 min, Human” value in data set [5] is 1.80%.

Turning to `Cc1nnc(C(=O)NC(C)(C)c2nc(C(=O)NCc3ccc(F)cc3)c(OC(C)OC(=O)OC(C)C)c(=O)n2C)o1` (stereo not shown) [Compound 2], in data set [6], the Vd is 2.17 L/kg, the half-life is 10.2 min, the AUC turned out to be 0.119 µM·h and the clearance was 244 mL/min/kg. Besides, in data set [6], the “nAUC0-∞” value is 0.119 µM·h. Moreover, in data set [7] (male, Wistar-Hanover), the bioavailability was found to be 6.6%, the Tmax came to 67.8 min and the AUC turned out to be 0.039 µM·h. Besides, the Cmax in data set [7] (setting [8]) was found to be 19 nM. For the same molecule, the nAUC in data set [7] worked out at 0.008 µM·h.

For `CCCCOC(=O)OC(C)Oc1c(C(=O)NCc2ccc(F)cc2)nc(C(C)(C)NC(=O)c2nnc(C)o2)n(C)c1=O` (stereo not shown) [Compound 7], the “Remaining at 90 min, Dog” value in data set [3] is recorded as 3.31%. In addition, the “Remaining at 90 min, Rat” value in data set [4] came to 2.72%. Moreover, the “Remaining at 90 min, Human” value in data set [5] turned out to be 2.12%.
